Laboratory results from US20070129307A1, “Insulin epitopes for the treatment of type 1 diabetes” (The University of British Columbia, priority 2001, published 2007).
“Also recorded” adds a separate entry of the source. Blank lines part the entries; values can stand above or below the substance they belong to.

Tests used:
[1] = system: autoreactive T cells in NOD pancreatic islets; test: Interferon-gamma ELISPOT with T cells of NOD pancreatic islets; type: cell-based, mouse; details: FIG. 5
H-2Kd = target: T1, H-2Kd (Mus musculus, UniProt P01902); test: MHC class I stabilization assay on RMAS-Kd cells (FACS); type: binding; details: background without peptide 6.07%
T1 construct: expressed in transfected cells; host or cells: RMAS (TAP-deficient murine cell line) transfected with H-2Kd
T1 sequence (P01902 22-368): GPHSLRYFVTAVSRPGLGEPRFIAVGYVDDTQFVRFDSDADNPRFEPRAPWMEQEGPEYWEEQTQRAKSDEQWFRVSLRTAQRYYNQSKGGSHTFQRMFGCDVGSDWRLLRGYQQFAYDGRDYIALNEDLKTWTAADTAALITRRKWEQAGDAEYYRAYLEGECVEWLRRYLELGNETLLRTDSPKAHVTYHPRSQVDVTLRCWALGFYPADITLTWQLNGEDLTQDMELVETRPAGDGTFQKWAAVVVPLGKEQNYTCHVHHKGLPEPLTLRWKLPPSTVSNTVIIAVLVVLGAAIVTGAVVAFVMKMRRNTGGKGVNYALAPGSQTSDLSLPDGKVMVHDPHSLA
T1 sequence (P01887 21-119 partner): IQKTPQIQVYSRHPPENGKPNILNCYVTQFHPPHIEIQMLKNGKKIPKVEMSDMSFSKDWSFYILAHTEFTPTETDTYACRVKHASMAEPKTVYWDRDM
Experimental: A peptide (for example, TUM, V7, INSL, TV1, TV2, or TV3) is added and the cells are incubated at room temperature for 1 hour, and then incubated at 37° C. for 3 hours. The cells are washed 3 times with 0.3% bovine serum albumin-phosphate buffer solution (BSA-PBS), and then stained with fluorescently labelled anti-mouse H-2Kd-FITC antibody. Fluorescent-activated cell sorting (FACS) analysis is performed to count the percentage of cells showing positive staining.
FACS analysis was performed to quantify the percentage/proportion of antigen presenting cells (RMAS-Kd) that express stable MHC class I on their cell surface, in association with the TV1 peptide. RMAS-Kd is a transporter for antigen presentation (TAP)-deficient RMAS cell line transfected with the mouse MHC class I molecule, H-2Kd. Because the cell line is TAP deficient it cannot assemble MHC class I (in this case H-2Kd) complexes stably but requires surface stabilisation by exogenous peptides that can bind with the H-2Kd heavy chain and beta-2 microglobulin. The cell line was stained for MHC class I expression with or without TV1 peptide.

[2] = system: HLA-A2 restricted CD8+ T cells (PBMC); details: for T cell responses in diabetic patients and controls: non-diabetic and non-HLA matched controls
HLA-A*0201 [3] = target: T2, HLA-A*0201 (Homo sapiens, UniProt P04439, D140Y/D185E/D98H/E176V/E277Q/G131W/G231S/I119V/I121R/I166T/I218V/L300P/L318F/N151K/N90K/P208A/P217A/Q86G/Q94H/R138H/R169H/T345S); test: Temporal stability (dissociation) of peptide/HLA-A*0201 complexes on T2 cells; type: binding; details: in 4 hours at 37° C., T2 cells with emetine, normalized to CMV/HLA-A2
T2 construct: cell membrane stabilization of the HLA-A2 molecule in TAP-deficient 174×CEM.T2 cells; endogenous in cells; host or cells: 174×CEM.T2 (T2) cells, TAP-deficient
Experimental: The stability of complexes formed with the peptides and HLA-A2 on T2 cells was assessed, over a 4-hour period at 37° C. After peptide removal and addition of emetine to inhibit protein synthesis, T2 cells were cultured at 37° C. and the HLA-A2 expression was determined at different incubation times using anti-HLA-A2 antibody. The stability of the various peptide/HLA-A2 complexes were then normalized relative to that observed for CMV/HLA-A2 complexes set as 100%.
The temporal stability of peptide/HLA-A*0201 complexes was assessed as previously described (Valmori, supra). Briefly, T2 cells were cultured with synthetic peptides overnight at room temperature as performed for peptide binding assay. The following day, after removing peptide and adding emetine (10^−4 M; Sigma-Aldrich, Oakville, Ontario, Canada) to block protein synthesis, cells were incubated at 37° C. for the indicated time periods. At each time point, an aliquot of cells was washed and stained with FITC-conjugated anti-HLA-A2 monoclonal antibody (BB7.2). Surface HLA-A2 expression was assessed by flow cytometry (FACSCalibur) and MFI was recorded. The CMV peptide was used as a positive control. Results are expressed as relative complex stability =100×[(MFI with given peptide—MFI without peptide)/(MFI with CMV peptide—MFI without peptide)].

NOD mice = test: Peptide immunisation of NOD mice, diabetes onset; type: in vivo, mouse; details: by week 18; 100 μg peptide intraperitoneally from 3 weeks of age; diabetic = two consecutive blood sugars >15 mM
Experimental: Peptides are administered to female NOD mice in accordance with standard laboratory methods.
Three groups of NOD mice (n=10 per group, purchased from Taconic, Germantown, N.Y., U.S.A.) were immunised beginning at three weeks of age with 100 μg of TUM, NRP-A7, or TV1 (MTV-1) peptide in PBS solution, intraperitoneally once per week for two weeks, then once every two weeks. Mice were monitored for hyperglycaemia weekly and considered to be diabetic after two consecutive blood sugars >15 mM.

HLA-A*0201 [4] = target: T2, HLA-A*0201; test: FACS assay of peptide binding to HLA-A2 on T2 cells (Example 6)
[5] = system: human autoreactive T cells (PBMC); test: Interferon gamma ELISPOT of PBMC from type 1 diabetes patients (Example 5); type: cell-based; details: 1 μM peptide, PBMC 20,000 per well, recent onset type 1 diabetes patients, FIG. 8
[6] = system: CTL from pancreatic islets of NOD mice; test: H-2Kd tetramer staining of NOD islet cells; type: cell-based, mouse; details: H-2Kd tetramers, islet cells ex vivo or after in vitro culture, FIG. 12
From the text: MHC class I tetramers (for example, H-2Kd tetrameric complexes) are synthesised as previously described by Altman et al. (Science 274:94-96, 1996). MHC heavy chain, modified by the addition of a C-terminal biotinylation site, and beta 2 microglobulin are expressed separately in E. coli (BL21, Stratagene, La Jolla, Calif., U.S.A.). Peptides were synthesized synthesised on a Perkin-Elmer-ABI 431A by the NAPS Unit, University of British Columbia, BC, Canada. Purified heavy chain, beta 2 microglobulin and peptide are refolded at 4° C. for 48 hours in a TRIS-based buffer, and the refolded product is concentrated, biotinylated using BirA enzyme (Avidity, Denver, Colo., U.S.A.) in the presence of biotin, ATP and Mg++ and purified by FPLC. Streptavidin-phycoerythrin conjugate is added in a 1:4 molar ratio and the tetrameric product is concentrated to approximately 1 mg/ml. The tetramer concentration is calculated based upon the concentration of biotinylated protein, quantified by Bradford assay, prior to addition of streptavidin.
Single cell suspensions of lymphocytes are incubated with 1 μl of a 1 mg/ml solution of MHC tetramer for 2-3 hours at 4° C. in FACS staining buffer (HBSS/FBS 2%/Sodium Azide 0.01%/EDTA 100 mM). The cells are centrifuged and washed three times before staining with antibody to CD8. […]

[7] = system: murine autoreactive T cells (NOD spleen cells); test: Interferon-gamma ELISPOT with NOD spleen cells; type: cell-based, mouse
From the text: The effector cells (CTL) of the ELISPOT assay are contained within spleen cells from NOD mice aged 10 weeks. The spleens from these mice contain a proportion of autoreactive CTL destined to destroy pancreatic beta cells.
The peptide NRP-V7 was used as a positive control and is a previously described synthetic autoepitope (automimotope) of NOD mice (Amrani et al., 2000). NRP-V7 was not derived from any endogenous mammalian protein sequence but was identified by screening combinatorial peptide libraries. The peptide TUM was used as a negative control. TUM is derived from an endogenous tumour peptide not known to participate in type 1 diabetes but known to bind to the MHC class I molecule, H-2Kd.

proportion of H-2Kd on the surface of the APC in the presence of peptide (H-2Kd): 73.68%
proportion of H-2Kd on the surface of the APC in the presence of peptide (H-2Kd; listed as INS-L): 73%
Substance: LYLVCGERG [INSL]
interferon-gamma secretion by autoreactive T cells in NOD pancreatic islets [1]: minimally

dissociation of peptide/HLA-A2 complexes (HLA-A*0201 [3]): about 20%
Substance: RLLCALTSL [IGRP293]
T cell responses in diabetic patients and controls ([2]; second study): could not be detected

Substance: NRP-A7: positive control peptide; known synthetic peptide autoantigen recognized in the context of H-2Kd (KYNKANAFL; NRP-A7 peptide)
immunized mice considered diabetic (NOD mice): 20%

dissociation of peptide/HLA-A2 complexes (HLA-A*0201 [3]): about 20%
Substance: ALWMRLLPL [Insulin2]
non-diabetic control subjects that responded ([2]; second study): three of the five

binding to HLA-A2 (HLA-A*0201 [4]; FIG. 11, listed as HTV 1): bind to HLA-A2
binding to HLA-A2 (HLA-A*0201 [4]; FIG. 11, listed as HTV1): binds
Substance: KLQVFLIVL (HTV-1 peptide epitope) [IAPP5]
recognition by human autoreactive T cells (interferon-gamma ELISPOT) [5]: elevated HTV1 autoreactivity; also recorded: recognise

proportion of H-2Kd on the surface of the APC in the presence of peptide (H-2Kd): 58%
Substance: KYPAVLLIL (modified version of precursor peptide TV1 (TV2))
recognition by CD8+ T cells (tetramer staining) [6]: recognize

dissociation of peptide/HLA-A2 complexes (HLA-A*0201 [3]): about 20%
Substance: GMAELMAGL [Phogrin331]
T cell responses in diabetic patients and controls ([2]; second study): could not be detected

proportion of H-2Kd on the surface of the APC in the presence of peptide (H-2Kd): 70%
Substance: RLLPLLALL (mouse insulin derived peptide) [TV3]

proportion of H-2Kd on the surface of the APC in the presence of peptide (H-2Kd): 64%
Substance: KLPAVLLIL (mTV-1 peptide epitope) [TV1]
recognition by murine autoreactive T cells (interferon-gamma secretion) ([7]; FIG. 1): recognise
recognition by murine autoreactive T cells (interferon-gamma secretion) ([7]; FIG. 1, listed as TV-1): high frequency of CTL that recognise TV-1
immunized mice considered diabetic (NOD mice): 80%

proportion of H-2Kd on the surface of the APC in the presence of peptide (H-2Kd): 66%
Substance: TUM: negative control; derived from an endogenous tumour peptide, known to bind H-2Kd (KYQAVTTTL)
immunized mice considered diabetic (NOD mice): none

Substance: DLMGYIPLV [HCV, reference compound]
subjects responding to the peptide ([2]; first study, all subjects): None of the subjects responded

Substance: LLPPLLEHL [IA-2(180)]
T cell responses in diabetic patients and controls ([2]; second study): could not be detected

Substance: KYNKANVFL [NRP-V7, positive control]
interferon-gamma secretion by autoreactive T cells in NOD pancreatic islets [1]: secrete interferon-gamma
recognition by murine autoreactive T cells (interferon-gamma secretion) ([7]; FIG. 1): Interferon-gamma is also secreted; also recorded: recognise
proportion of H-2Kd on the surface of the APC in the presence of peptide (H-2Kd): 72%
proportion of H-2Kd on the surface of the APC in the presence of peptide (H-2Kd; listed as V7): 72.71%
